# Key:
# [1] = target: T1, C. elegans ACAD10 KD (ACAD10 kinase domain) (Caenorhabditis elegans, UniProt O01590); experiment: […] incorporation, TLC, phosphorimaging; format: biochemical; conditions: [γ-32P]ATP
# T1 construct: gene acds-10; kinase domain, residues 209-568, purified
# T1 sequence (O01590 209-568): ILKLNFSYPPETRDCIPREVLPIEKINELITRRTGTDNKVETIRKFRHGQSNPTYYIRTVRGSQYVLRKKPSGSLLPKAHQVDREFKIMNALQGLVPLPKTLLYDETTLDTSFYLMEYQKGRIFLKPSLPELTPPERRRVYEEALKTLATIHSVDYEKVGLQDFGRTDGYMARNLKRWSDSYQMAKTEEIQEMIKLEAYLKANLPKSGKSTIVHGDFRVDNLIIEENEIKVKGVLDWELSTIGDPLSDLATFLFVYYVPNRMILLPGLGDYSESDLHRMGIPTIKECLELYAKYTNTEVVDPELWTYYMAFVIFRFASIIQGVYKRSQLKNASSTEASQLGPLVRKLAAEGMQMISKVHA
# [2] = target: T2, C. elegans ACAD10 phosphatase domain (Caenorhabditis elegans, UniProt O01590); experiment: dephosphorylation of […]-labelled lipid, TLC, phosphorimaging; format: biochemical; conditions: labelled compound; Mg2+
# T2 construct: gene acds-10; phosphatase domain, residues 1-212
# T2 sequence (O01590 1-212): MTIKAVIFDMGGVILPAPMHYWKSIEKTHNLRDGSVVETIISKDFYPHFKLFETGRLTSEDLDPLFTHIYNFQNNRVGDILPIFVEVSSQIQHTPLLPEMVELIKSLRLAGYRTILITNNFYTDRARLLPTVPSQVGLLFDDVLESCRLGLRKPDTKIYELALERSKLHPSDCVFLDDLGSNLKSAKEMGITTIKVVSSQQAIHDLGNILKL
# [3] = target: T3, C. thermarum ACAD10 kinase domain (Caldalkalibacillus thermarum, UniProt F5L6J0); experiment: X-ray crystallography, […] Å; format: binding; conditions: nucleotide groove between N- and C-lobe; Mg2+ and acetyl-CoA in crystallization, neither seen
# T3 construct: gene CathTA2_1440; purified prokaryotic ACAD10 kinase domain homolog; HYDxK motif with D214/K216, N219, DWE motif D234-E236, R61, E78
# [4] = target: T3, C. thermarum ACAD10 kinase domain; experiment: […] incorporation, TLC, phosphorimaging; format: biochemical; conditions: activator; binding site only modelled, no density in crystal
# [5] = target: T1, C. elegans ACAD10 KD (ACAD10 kinase domain); experiment: […] incorporation into lipid, TLC; format: biochemical; conditions: activator; purified domain with mouse liver mitochondrial extract as lipid source; Mg2+
smiles,measurement,setting,value
"CCCCCCCCCCCCCCCCOCC(O)CO (racemic) [chimyl alcohol, 1-O-hexadecyl-rac-glycerol]","32P incorporation, TLC, phosphorimaging",[1],C. elegans ACAD10 phosphorylated chimyl alcohol (1-O-hexadecyl-rac-glycerol) (Figure 1G)
"CCCCCCCCCCCCCCCCOC[C@H](COP(=O)(O)O)OC(C)=O [1-alkyl (16:0), 2-acetyl (2:0), 1-O-alkyl-2-acetyl-sn-glycero-3-phosphate]","dephosphorylation of 32P-labelled lipid, TLC, phosphorimaging",[2],phosphatase domain selectively dephosphorylated 1-O-alkyl-2-acetyl-sn-glycero-3-phosphate but not 1-O-alkyl-2-acyl-sn-glycero-3-phosphate
Nc1ncnc2c1ncn2[C@@H]1O[C@H](COP(=O)(O)OP(=O)(O)NP(=O)(O)O)[C@@H](O)[C@H]1O [AMP-PNP],"X-ray crystallography, 2.15 Å",[3],crystal structure of the Caldalkalibacillus thermarum ACAD10 kinase domain bound to the ATP analog AMP-PNP
CC(=O)SCCNC(=O)CCNC(=O)[C@H](O)C(C)(C)COP(=O)(O)OP(=O)(O)OC[C@H]1O[C@@H](n2cnc3c(N)ncnc32)[C@H](O)[C@@H]1OP(=O)(O)O [acetyl-CoA],"32P incorporation, TLC, phosphorimaging",[4],acetyl-CoA stimulates C. thermarum ACAD10 kinase domain
same,"32P incorporation into lipid, TLC",[5],"In addition to acetyl-CoA, CoA alone or other CoA thioesters also activated"

# Source: doi:10.1101/2025.09.10.675409, “ACAD10 encodes two orphan enzymes in the ether lipid biosynthetic and salvage pathways” (bioRxiv, 2026)
